Columns and labels:
[1] = biological target: Cyclin-dependent kinase 2 (Homo sapiens, UniProt P24941)
[2] = biological target: Glycogen synthase kinase-3 beta (Homo sapiens, UniProt P49841)
Description: Binding affinity for human glycogen synthase kinase 3 beta

[3] = biological target: Glycogen synthase kinase-3 beta (Rattus norvegicus, UniProt P18266); assay: Effective concentration to increase glycogen deposition in rat skeletal muscle L6 myoblast cells; format: functional, cell-based
Chain of Glycogen synthase kinase-3 beta (Rattus norvegicus, UniProt P18266) (P18266 whole entry): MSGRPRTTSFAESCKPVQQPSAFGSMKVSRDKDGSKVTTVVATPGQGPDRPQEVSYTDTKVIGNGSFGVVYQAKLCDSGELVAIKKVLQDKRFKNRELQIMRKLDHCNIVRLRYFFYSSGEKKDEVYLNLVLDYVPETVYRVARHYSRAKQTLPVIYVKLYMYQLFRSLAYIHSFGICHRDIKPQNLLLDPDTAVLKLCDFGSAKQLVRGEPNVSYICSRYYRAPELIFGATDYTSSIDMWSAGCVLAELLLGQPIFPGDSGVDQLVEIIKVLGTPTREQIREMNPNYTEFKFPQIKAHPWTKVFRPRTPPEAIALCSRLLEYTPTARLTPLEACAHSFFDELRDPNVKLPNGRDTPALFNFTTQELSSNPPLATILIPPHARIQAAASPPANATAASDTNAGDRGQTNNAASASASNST

Chain of Glycogen synthase kinase-3 beta (Homo sapiens, UniProt P49841) (P49841 whole entry): as the sequence (P18266 whole entry) above, with M240V, P390T, A392T, T400A, A402T counted along it

SMILES	IC50 [1]	IC50 [2]	EC50 [3]
COCCOc1cnn2ncc(-c3ccnc(Nc4cccc(OC)c4)n3)c2c1	> 20000 nM	80 nM	
Cc1ccc2c(-c3ccnc(Nc4ccc(F)c(F)c4)n3)c(-c3ccc(F)cc3)nn2n1	> 20000 nM	10 nM	
Cc1ccc2c(-c3ccnc(Nc4cccc(C(F)(F)F)c4)n3)c(-c3ccc(F)cc3)nn2n1	> 20000 nM	20 nM	6800 nM
Cc1ccc2c(-c3ccnc(Nc4ccc5c(c4)OCCO5)n3)c(-c3ccc(F)cc3)nn2n1	> 20000 nM	10 nM	
Fc1cc(F)cc(Nc2nccc(-c3cnn4ncccc34)n2)c1	1 nM		1000 nM
Fc1ccc(Nc2nccc(-c3c(-c4cccc(C(F)(F)F)c4)nn4ncccc34)n2)cc1F	> 20000 nM	310 nM	
Cc1ccc2c(-c3ccnc(Nc4ccc(Cl)c(C(F)(F)F)c4)n3)c(-c3cccc(C(F)(F)F)c3)nn2n1	> 20000 nM		
Fc1ccc(Nc2nccc(-c3c(C4CCCCC4)nn4ncccc34)n2)cc1F	> 20000 nM	> 20000 nM	
CCC(C)c1ccc(Nc2nccc(-c3cnn4ncccc34)n2)cc1 (stereo unspecified)	150 nM	120 nM	
FC(F)(F)c1cccc(-c2nn3ncccc3c2-c2ccnc(Nc3ccccc3)n2)c1	> 20000 nM	150 nM	
Cc1ccc2c(-c3ccnc(Nc4ccc(Cl)c(C(F)(F)F)c4)n3)c(-c3ccccc3)nn2n1	> 20000 nM	100 nM	
Cc1cc(C)cc(Nc2nccc(-c3cnn4ncccc34)n2)c1			1800 nM
COc1ccc(-c2nn3ncccc3c2-c2ccnc(Nc3ccccc3)n2)cc1	> 20000 nM		
Fc1ccc(-c2nn3ncccc3c2-c2ccnc(Nc3ccc(F)c(F)c3)n2)cc1	> 20000 nM		
Cc1ccc2c(-c3ccnc(Nc4ccc(F)c(F)c4)n3)c(-c3cccc(C(F)(F)F)c3)nn2n1	> 20000 nM		
COc1ccc2c(-c3ccnc(Nc4ccc([N+](=O)[O-])cc4)n3)cnn2n1	20 nM	70 nM	
Fc1ccc(-c2nn3ncccc3c2-c2ccnc(Nc3ccccc3)n2)cc1	> 20000 nM	20 nM	
Fc1cc(F)cc(Nc2nccc(-c3c(-c4ccccc4)nn4ncccc34)n2)c1	> 20000 nM	10 nM	
c1ccc(-c2ccc3c(-c4ccnc(Nc5ccc6c(c5)OCCO6)n4)cnn3n2)cc1	> 20000 nM	120 nM	
COc1cc(Nc2nccc(-c3cnn4nc(C)ccc34)n2)cc(C(F)(F)F)c1	20 nM	10 nM	
c1cnn2ncc(-c3ccnc(Nc4ccc5c(c4)OCCCO5)n3)c2c1	6 nM		

SMILES	IC50 [1]	IC50 [2]	EC50 [3]
Clc1ccc(-c2nn3ncccc3c2-c2ccnc(Nc3ccc4c(c3)OCCO4)n2)cc1	> 20000 nM	790 nM	
Clc1ccc(Nc2nccc(-c3cnn4ncccc34)n2)cc1Cl	1 nM	10 nM	
Cc1ccc2c(-c3ccnc(Nc4cccc(C(F)(F)F)c4)n3)cnn2n1	50 nM	< 10 nM	
FC(F)(F)c1cccc(-c2nn3ncccc3c2-c2ccnc(Nc3ccc(Cl)c(C(F)(F)F)c3)n2)c1	> 20000 nM	1000 nM	
COc1cc(Nc2nccc(-c3cnn4nc(OC)ccc34)n2)cc(C(F)(F)F)c1	790 nM	190 nM	
Cc1ccc2c(-c3ccnc(Nc4ccccc4)n3)c(-c3ccc(C(F)(F)F)cc3)nn2n1	> 20000 nM	> 31600 nM	
CCCOc1ccc2c(-c3ccnc(Nc4cccc(C(F)(F)F)c4)n3)cnn2n1	1260 nM	790 nM	
Oc1ccc2c(-c3ccnc(Nc4cccc(C(F)(F)F)c4)n3)cnn2n1	8 nM	10 nM	
COc1ccc2c(-c3ccnc(Nc4cc(C(F)(F)F)cc(C(F)(F)F)c4)n3)cnn2n1	> 20000 nM		
Cc1ccc2c(-c3ccnc(Nc4ccc(C(F)(F)F)cc4)n3)cnn2n1	190 nM	50 nM	
COc1cccc(Nc2nccc(-c3cnn4nc(OC)ccc34)n2)c1	60 nM	100 nM	
COc1cc(Nc2nccc(-c3cnn4nc(OC)ccc34)n2)cc(OC)c1	190 nM	120 nM	
FC(F)(F)c1cc(Nc2nccc(-c3cnn4ncccc34)n2)ccc1Cl	10 nM		1000 nM
COc1ccc2c(-c3ccnc(Nc4ccc5c(c4)OCCO5)n3)cnn2n1	100 nM	30 nM	
O=[N+]([O-])c1ccc(Nc2nccc(-c3cnn4ncccc34)n2)cc1	20 nM		
FC(F)(F)c1ccc(-c2nn3ncccc3c2-c2ccnc(Nc3ccc(Cl)c(C(F)(F)F)c3)n2)cc1	> 20000 nM	> 31600 nM	
COc1ccc2c(-c3ccnc(Nc4cccc(C(F)(F)F)c4)n3)cnn2n1	160 nM	50 nM	
Fc1ccc(-c2nn3ncccc3c2-c2ccnc(Nc3ccc(Cl)c(C(F)(F)F)c3)n2)cc1	> 20000 nM	40 nM	
Fc1ccc(-c2nn3ncccc3c2-c2ccnc(Nc3cccc(C(F)(F)F)c3)n2)cc1	> 20000 nM	20 nM	2800 nM
COc1ccc2c(-c3ccnc(Nc4ccc(C#N)cc4)n3)cnn2n1	500 nM	50 nM	
c1cnn2ncc(-c3ccnc(Nc4ccc5c(c4)OCO5)n3)c2c1	10 nM		

SMILES	IC50 [1]	IC50 [2]	EC50 [3]
Cc1ccc2c(-c3ccnc(Nc4ccc5c(c4)OCCO5)n3)c(-c3cccc(C(F)(F)F)c3)nn2n1	5000 nM	150 nM	
FC(F)(F)c1cc(Nc2nccc(-c3c(-c4ccc(Cl)cc4)nn4ncccc34)n2)ccc1Cl	> 20000 nM		
FC(F)(F)c1cccc(Nc2nccc(-c3c(-c4ccccc4)nn4ncccc34)n2)c1	> 20000 nM	10 nM	2100 nM
c1ccc(Nc2nccc(-c3c(C4CCCCC4)nn4ncccc34)n2)cc1	> 20000 nM	> 20000 nM	
c1ccc(Nc2nccc(-c3cnn4ncccc34)n2)cc1			2900 nM
N#Cc1ccc(Nc2nccc(-c3cnn4ncccc34)n2)cc1	1 nM		
COc1cc(Nc2nccc(-c3cnn4ncccc34)n2)cc(C(F)(F)F)c1	10 nM		1200 nM
c1ccc(Nc2nccc(-c3c(-c4ccccc4)nn4ncccc34)n2)cc1	3980 nM	10 nM	1600 nM
Cc1ccc2c(-c3ccnc(Nc4ccc(Cl)c(C(F)(F)F)c4)n3)c(-c3ccc(F)cc3)nn2n1	> 20000 nM	50 nM	
Clc1cc(Cl)cc(Nc2nccc(-c3cnn4ncccc34)n2)c1	310 nM		1000 nM
Cc1ccc2c(-c3ccnc(Nc4ccc5c(c4)OCCO5)n3)c(-c3ccccc3)nn2n1	> 20000 nM	30 nM	
FC(F)(F)c1cccc(Nc2nccc(-c3c(-c4ccc(Cl)cc4)nn4ncccc34)n2)c1	> 20000 nM		
c1ccc(Nc2nccc(-c3c(C4CC4)nn4ncccc34)n2)cc1	3980 nM		
c1ccc(-c2nn3ncccc3c2-c2ccnc(Nc3ccc4c(c3)OCCO4)n2)cc1	> 20000 nM		
Cc1ccc2c(-c3ccnc(Nc4ccc(F)c(F)c4)n3)c(-c3ccccc3)nn2n1	> 20000 nM	30 nM	3400 nM
Cc1ccc2c(-c3ccnc(Nc4ccccc4)n3)c(-c3cccc(C(F)(F)F)c3)nn2n1	> 20000 nM	790 nM	
Fc1ccc(Nc2nccc(-c3c(-c4ccc(Cl)cc4)nn4ncccc34)n2)cc1F	> 20000 nM	1000 nM	
FC(F)(F)c1cc(Br)cc(Nc2nccc(-c3cnn4ncccc34)n2)c1	10 nM		
FC(F)(F)c1cc(Nc2nccc(-c3c(-c4ccccc4)nn4ncccc34)n2)ccc1Cl	> 20000 nM	20 nM	
FC(F)(F)c1ccc(-c2nn3ncccc3c2-c2ccnc(Nc3cccc(C(F)(F)F)c3)n2)cc1	> 20000 nM	> 31600 nM	
Cc1ccc2c(-c3ccnc(Nc4ccccc4)n3)c(-c3ccccc3)nn2n1		50 nM	3600 nM

SMILES	IC50 [1]	IC50 [2]	EC50 [3]
Cc1ccc2c(-c3ccnc(Nc4ccc5c(c4)OCCO5)n3)cnn2n1	6 nM	10 nM	
Fc1ccc(Nc2nccc(-c3c(-c4ccccc4)nn4ncccc34)n2)cc1F	> 20000 nM	10 nM	4200 nM
CC(C)c1ccc(Nc2nccc(-c3cnn4ncccc34)n2)cc1 [GW805758X]	10 nM	30 nM	
c1cnn2ncc(-c3ccnc(Nc4ccc5c(c4)OCCO5)n3)c2c1 [GW806290X]			800 nM
CCOc1ccc2c(-c3ccnc(Nc4cc(OC)cc(C(F)(F)F)c4)n3)cnn2n1 [GW807982X]	> 20000 nM	3160 nM	
CCOc1ccc2c(-c3ccnc(Nc4cccc(C(F)(F)F)c4)n3)cnn2n1 [GW811761X]	1990 nM	190 nM	
FC(F)(F)c1cccc(Nc2nccc(-c3cnn4nc(-c5ccccc5)ccc34)n2)c1 [GW819077X]	2500 nM		
Fc1ccc(-c2nn3ncccc3c2-c2ccnc(Nc3ccc4c(c3)OCCO4)n2)cc1 [GW827099X]	> 20000 nM	10 nM	
COc1ccc(-c2nn3ncccc3c2-c2ccnc(Nc3cccc(C(F)(F)F)c3)n2)cc1 [GW827105X]	> 20000 nM		
COc1ccc(-c2nn3ncccc3c2-c2ccnc(Nc3ccc(F)c(F)c3)n2)cc1 [GW827396X]	> 20000 nM		
FC(F)(F)c1ccc(-c2nn3ncccc3c2-c2ccnc(Nc3ccc4c(c3)OCCO4)n2)cc1 [GW828525X]	> 20000 nM	> 31600 nM	
Fc1ccc(Nc2nccc(-c3c(-c4ccc(C(F)(F)F)cc4)nn4ncccc34)n2)cc1F [GW828529X]	> 20000 nM	> 31600 nM	
Clc1ccc(-c2nn3ncccc3c2-c2ccnc(Nc3ccccc3)n2)cc1 [GW829055X]	> 20000 nM		
COc1ccc(-c2nn3ncccc3c2-c2ccnc(Nc3ccc(Cl)c(C(F)(F)F)c3)n2)cc1 [GW829115X]	> 20000 nM		
Cc1ccc2c(-c3ccnc(Nc4ccc5c(c4)OCCO5)n3)c(-c3ccc(C(F)(F)F)cc3)nn2n1 [GW832467X]	> 20000 nM	> 31600 nM	
Cc1ccc2c(-c3ccnc(Nc4ccccc4)n3)c(-c3ccc(F)cc3)nn2n1 [GW833373X]	> 20000 nM	20 nM	
COc1cccc(Nc2nccc(-c3cnn4ncccc34)n2)c1 [PYRAZOLOPYRIDAZINE 1]			1300 nM
COc1ccc(Nc2nccc(-c3cnn4ncccc34)n2)cc1OC [PYRAZOLOPYRIDAZINE 2]	50 nM	10 nM	1500 nM

Reference: ChEMBL document CHEMBL1138749, “N-Phenyl-4-pyrazolo[1,5-b]pyridazin-3-ylpyrimidin-2-amines as potent and selective inhibitors of glycogen synthase kinase 3 with good cellular efficacy” (J Med Chem, 2004)
